# Where two headings read alike, the source gives them in different places.
# Assays:
# MST1 = MST1 (Homo sapiens (Human), UniProt Q13043); assay: MST1 biochemical LanthaScreen Eu Kinase Binding Assay
# Description: (§1) MST1 and MST2 biochemical LanthaScreen Eu Kinase Binding Assay was based on the binding and displacement of kinase tracer to the kinase of interest. Compounds in 1000×DMSO stock solution was dispensed using automated dispensing system (Labcyte) to 384 well Corning Microplate at 15 nL, 5 uL of Kinase buffer A was added to each well. Plates were shaken and incubated for 1 min to ensure well dissolution of compounds.
# MST2 = MST2 (Homo sapiens (Human), UniProt Q13188); assay: MST2 biochemical LanthaScreen Eu Kinase Binding Assay
# Description: as §1
# [1] = read-out: Kinase Binding assay-MST1 IC50
# [2] = read-out: Kinase Binding assay-MST2 IC50
# Sequence of MST1 (Q13043 whole entry): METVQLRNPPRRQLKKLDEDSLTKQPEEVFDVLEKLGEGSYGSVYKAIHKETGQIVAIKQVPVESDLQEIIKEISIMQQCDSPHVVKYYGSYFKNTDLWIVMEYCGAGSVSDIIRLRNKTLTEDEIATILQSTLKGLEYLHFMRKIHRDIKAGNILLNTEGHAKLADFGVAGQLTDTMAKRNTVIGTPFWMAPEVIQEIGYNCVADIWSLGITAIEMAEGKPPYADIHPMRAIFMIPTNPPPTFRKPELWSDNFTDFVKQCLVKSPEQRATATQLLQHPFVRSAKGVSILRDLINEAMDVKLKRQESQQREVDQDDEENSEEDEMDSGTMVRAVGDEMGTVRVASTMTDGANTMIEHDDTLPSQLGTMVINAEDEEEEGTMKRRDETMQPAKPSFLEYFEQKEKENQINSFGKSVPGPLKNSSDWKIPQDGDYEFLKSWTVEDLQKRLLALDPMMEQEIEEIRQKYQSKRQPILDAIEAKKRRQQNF
# Sequence of MST2 (Q13188 whole entry): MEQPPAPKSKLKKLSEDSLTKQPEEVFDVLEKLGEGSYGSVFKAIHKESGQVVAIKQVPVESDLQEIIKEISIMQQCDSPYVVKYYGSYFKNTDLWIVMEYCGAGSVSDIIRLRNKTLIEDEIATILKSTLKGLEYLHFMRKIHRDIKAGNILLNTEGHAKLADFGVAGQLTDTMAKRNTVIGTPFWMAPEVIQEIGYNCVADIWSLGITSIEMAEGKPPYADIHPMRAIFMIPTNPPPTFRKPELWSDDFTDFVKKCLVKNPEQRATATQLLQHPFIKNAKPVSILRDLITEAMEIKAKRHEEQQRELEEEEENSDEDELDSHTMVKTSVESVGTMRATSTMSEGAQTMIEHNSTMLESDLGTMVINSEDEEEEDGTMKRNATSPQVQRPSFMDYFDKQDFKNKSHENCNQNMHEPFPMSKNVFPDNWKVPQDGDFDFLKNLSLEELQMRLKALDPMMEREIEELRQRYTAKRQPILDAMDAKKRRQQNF
Structure (SMILES),IC50 (MST1; [1]) [nM],other results
CCOc1cc2ncc(C#N)c(Nc3ccc(OCc4ncccc4C)c(Cl)c3)c2cc1NC(=O)CCCN(C)C [Example 1],< 100,IC50 (MST2; [2]): < 100 nM
CCOc1cc2ncc(C#N)c(Nc3ccc(OCc4cc(Cl)ccn4)c(Cl)c3)c2cc1NC(=O)CCCN(C)C [Example 2],< 100,IC50 (MST2; [2]): < 100 nM
CCOc1cc2ncc(C#N)c(Nc3ccc(OCc4cccc(Br)n4)c(Cl)c3)c2cc1NC(=O)CCCN(C)C [Example 3],< 100,IC50 (MST2; [2]): < 100 nM
CCOc1cc2ncc(C#N)c(Nc3ccc(OCc4cccc(F)n4)c(Cl)c3)c2cc1NC(=O)CCCN(C)C [Example 4],< 100,IC50 (MST2; [2]): < 100 nM
CCOc1cc2ncc(C#N)c(Nc3ccc(OCc4cccc(C#N)n4)c(Cl)c3)c2cc1NC(=O)CCCN(C)C [Example 5],< 100,IC50 (MST2): 100 to 1000 nM
CCOc1cc2ncc(C#N)c(Nc3ccc(OCc4cccc(OC)n4)c(Cl)c3)c2cc1NC(=O)CCCN(C)C [Example 6],,IC50 (MST1): 100 to 1000 nM; IC50 (MST2): 100 to 1000 nM
CCOc1cc2ncc(C#N)c(Nc3ccc(OCc4cccc(Cl)n4)c(Cl)c3)c2cc1NC(=O)CCCN(C)C [Example 7],< 100,IC50 (MST2; [2]): < 100 nM
CCOc1cc2ncc(C#N)c(Nc3ccc(OCc4ccccn4)c(Cl)c3)c2cc1NC(=O)CCCN(C)C [Example 8],< 100,IC50 (MST2): 100 to 1000 nM
CCOc1cc2ncc(C#N)c(Nc3ccc(OCc4ccccn4)c(F)c3)c2cc1NC(=O)CCCN(C)C [Example 9],100 to 1000,IC50 (MST2): 100 to 1000 nM
CCOc1cc2ncc(C#N)c(Nc3ccc(OCc4cc(C)ccn4)c(Cl)c3)c2cc1NC(=O)CCCN(C)C [Example 10],< 100,IC50 (MST2): 100 to 1000 nM
CCOc1cc2ncc(C#N)c(Nc3ccc(OCc4ccc(C)cn4)c(Cl)c3)c2cc1NC(=O)CCCN(C)C [Example 11],100 to 1000,IC50 (MST2; [2]): < 100 nM
CCOc1cc2ncc(C#N)c(Nc3ccc(OCc4cccc(C)n4)c(Cl)c3)c2cc1NC(=O)CCCN(C)C [Example 12],< 100,IC50 (MST2; [2]): < 100 nM
CCOc1cc2ncc(C#N)c(Nc3ccc(OCc4ccc(F)cn4)c(Cl)c3)c2cc1NC(=O)CCCN(C)C [Example 13],,IC50 (MST1): 100 to 1000 nM; IC50 (MST2): 100 to 1000 nM
CCOc1cc2ncc(C#N)c(Nc3ccc(OCc4ccc(Cl)cn4)c(Cl)c3)c2cc1NC(=O)CCCN(C)C [Example 14],,IC50 (MST1): 100 to 1000 nM; IC50 (MST2): 100 to 1000 nM
CCOc1cc2ncc(C#N)c(Nc3ccc(OCc4ncccc4Br)c(Cl)c3)c2cc1NC(=O)CCCN(C)C [Example 15],< 100,IC50 (MST2; [2]): < 100 nM
CCOc1cc2ncc(C#N)c(Nc3ccc(OCc4ncccc4F)c(Cl)c3)c2cc1NC(=O)CCCN(C)C [Example 16],< 100,IC50 (MST2; [2]): < 100 nM
CCOc1cc2ncc(C#N)c(Nc3ccc(OCc4ncccc4C(F)(F)F)c(Cl)c3)c2cc1NC(=O)CCCN(C)C [Example 17],< 100,IC50 (MST2; [2]): < 100 nM
CCOc1cc2ncc(C#N)c(Nc3ccc(OCc4ccccc4)c(Cl)c3)c2cc1NC(=O)CCCN(C)C [Example 46],100 to 1000,
CCOc1cc2ncc(C#N)c(Nc3ccc(OCc4ccccn4)cc3)c2cc1NC(=O)CCCN(C)C [Example 47],100 to 1000,
CCOc1cc2ncc(C#N)c(Nc3ccc(OCc4ccccn4)c(C)c3)c2cc1NC(=O)CCCN(C)C [Example 48],100 to 1000,
CCOc1cc2ncc(C#N)c(Nc3ccc(OCc4cccnc4)c(Cl)c3)c2cc1NC(=O)CCCN(C)C [Example 49],1000 to 10000,

Structure (SMILES),IC50 (MST1; [1]) [nM],other results
CCOc1cc2ncc(C#N)c(Nc3ccc(OCc4ccncc4)c(Cl)c3)c2cc1NC(=O)CCCN(C)C [Example 50],1000 to 10000,
CCOc1cc2ncc(C#N)c(Nc3ccc(OCc4cccnc4)cc3)c2cc1NC(=O)CCCN(C)C [Example 51],1000 to 10000,
CCOc1cc2ncc(C#N)c(Nc3ccc(OCc4ccc(C(F)(F)F)cn4)c(Cl)c3)c2cc1NC(=O)CCCN(C)C [Example 53],100 to 1000,
CCOc1cc2ncc(C#N)c(Nc3ccc(OCc4cccc(C(F)(F)F)n4)c(Cl)c3)c2cc1NC(=O)CCCN(C)C [Example 54],100 to 1000,
CCOc1cc2ncc(C#N)c(Nc3ccc(OCc4cc(C(F)(F)F)ccn4)c(Cl)c3)c2cc1NC(=O)CCCN(C)C [Example 55],100 to 1000,
CCOc1cc2ncc(C#N)c(Nc3ccc(OCc4ccc(OC)cn4)c(Cl)c3)c2cc1NC(=O)CCCN(C)C [Example 56],100 to 1000,
CCOc1ccc(COc2ccc(Nc3c(C#N)cnc4cc(OCC)c(NC(=O)CCCN(C)C)cc34)cc2Cl)nc1 [Example 57],100 to 1000,
CCOc1cc2ncc(C#N)c(Nc3ccc(OCc4ccc(C(=O)OC)cn4)c(Cl)c3)c2cc1NC(=O)CCCN(C)C [Example 58],100 to 1000,
CCOc1cc2ncc(C#N)c(Nc3ccc(OCc4ccc5c(n4)OCCC5)c(Cl)c3)c2cc1NC(=O)CCCN(C)C [Example 59],1000 to 10000,
CCOc1cc2ncc(C#N)c(Nc3ccc(OCc4cnc(C)cn4)c(Cl)c3)c2cc1NC(=O)CCCN(C)C [Example 60],100 to 1000,
CCOc1cc2ncc(C#N)c(Nc3ccc(OCCCn4cncn4)c(Cl)c3)c2cc1NC(=O)CCCN(C)C [Example 61],1000 to 10000,
CCOc1cc2ncc(C#N)c(Nc3ccc(OCc4cnc5cccnc5c4)c(Cl)c3)c2cc1NC(=O)CCCN(C)C [Example 63],100 to 1000,
CCOc1cc2ncc(C#N)c(Nc3ccc(OCCn4ccc(C)n4)c(Cl)c3)c2cc1NC(=O)CCCN(C)C [Example 64],100 to 1000,
CCOc1cc2ncc(C#N)c(Nc3ccc(OCCc4c(C)noc4C)c(Cl)c3)c2cc1NC(=O)CCCN(C)C [Example 66],100 to 1000,
CCOc1cc2ncc(C#N)c(Nc3ccc(OCc4cccnn4)c(Cl)c3)c2cc1NC(=O)CCCN(C)C [Example 68],100 to 1000,
CCOc1cc2ncc(C#N)c(Nc3ccc(OCc4cocn4)c(Cl)c3)c2cc1NC(=O)CCCN(C)C [Example 69],100 to 1000,
CCOc1cc2ncc(C#N)c(Nc3ccc(OCc4nc(C(C)C)no4)c(Cl)c3)c2cc1NC(=O)CCCN(C)C [Example 70],100 to 1000,
CCOc1cc2ncc(C#N)c(Nc3ccc(OCc4cc5ncccc5o4)c(Cl)c3)c2cc1NC(=O)CCCN(C)C [Example 71],100 to 1000,
CCOc1cc2ncc(C#N)c(Nc3ccc(OCc4ncccc4-c4ccccc4)c(Cl)c3)c2cc1NC(=O)CCCN(C)C [Example 72],100 to 1000,
CCOc1cc2ncc(C#N)c(Nc3ccc(OCc4cc(-c5ccc(C)cc5)on4)c(Cl)c3)c2cc1NC(=O)CCCN(C)C [Example 73],100 to 1000,
CCOc1cc2ncc(C#N)c(Nc3ccc(OCc4ccccn4)c(Cl)c3)c2cc1NC(=O)CCN(C)C [Example 96],< 100,

Structure (SMILES),IC50 (MST1; [1]) [nM],other results
CCOc1cc2ncc(C#N)c(Nc3ccc(OCc4ccccn4)c(Cl)c3)c2cc1NC(=O)CCCN1CCN(C)CC1 [Example 98],< 100,
CCOc1cc2ncc(C#N)c(Nc3ccc(OCc4ccccn4)c(Cl)c3)c2cc1NC(=O)CC [Example 101],1000 to 10000,
"CCOc1cc2ncc(C#N)c(Nc3ccc(NC(=O)c4ccccc4)c(Cl)c3)c2cc1NC(=O)CCCN(C)C [Example 109, N-(2-chloro-4-(3-cyano-6-(4-(dimethylamino)butanamido)-7-ethoxyquinolin-4-ylamino)phenyl)benzamide]",100 to 1000,
"CCOc1cc2ncc(C#N)c(Nc3ccc(NCc4ccccn4)c(Cl)c3)c2cc1NC(=O)CCCN(C)C [Example 111, N-(4-(3-chloro-4-(pyridin-2-ylmethylamino)phenylamino)-3-cyano-7-ethoxyquinolin-6-yl)-4-(dimethylamino)butanamide]",100 to 1000,
CCOc1cc2ncc(C#N)c(Nc3ccc(NC(C)c4ccccn4)c(Cl)c3)c2cc1NC(=O)CCCN(C)C (centres unmarked) [Example 112],1000 to 10000,
CCOc1cc2ncc(C#N)c(Nc3ccc(NC(C)(C)c4ccccn4)c(Cl)c3)c2cc1NC(=O)CCCN(C)C [Example 113],1000 to 10000,
CCOc1cc2ncc(C#N)c(Nc3ccc(NC(C)c4ccccc4)c(Cl)c3)c2cc1NC(=O)CCCN(C)C (centres unmarked) [Example 114],1000 to 10000,
"CCOc1cc2ncc(C#N)c(Nc3ccccc3)c2cc1NC(C)=O [Example 115, N-(3-cyano-7-ethoxy-4-(phenylamino)quinolin-6-yl)acetamide]",1000 to 10000,
CCOc1cc2ncc(C#N)c(N(C)c3ccccc3)c2cc1NC(C)=O [Example 116],1000 to 10000,
CCOc1cc2ncc(C#N)c(Nc3ccccc3F)c2cc1NC(C)=O [Example 118],100 to 1000,
CCOc1cc2ncc(C#N)c(Nc3ccc(C)cc3)c2cc1NC(C)=O [Example 120],100 to 1000,
CCOc1cc2ncc(C#N)c(Nc3ccc(OC)cc3)c2cc1NC(C)=O [Example 121],100 to 1000,
CCOc1cc2ncc(C#N)c(Nc3ccc(Cl)cc3)c2cc1NC(C)=O [Example 122],1000 to 10000,
CCOc1cc2ncc(C#N)c(Nc3ccc(C#N)cc3)c2cc1NC(C)=O [Example 129],1000 to 10000,
CCOc1cc2ncc(C#N)c(Nc3cccc(C)c3)c2cc1NC(C)=O [Example 130],1000 to 10000,
CCOc1cc2ncc(C#N)c(Nc3cccc(OC)c3)c2cc1NC(C)=O [Example 131],100 to 1000,
CCOc1cc2ncc(C#N)c(Nc3cccc(S(C)(=O)=O)c3)c2cc1NC(C)=O [Example 134],1000 to 10000,
CCOc1cc2ncc(C#N)c(Nc3ccc(OC)c(Cl)c3)c2cc1NC(C)=O [Example 136],100 to 1000,
"CCOc1cc2ncc(C#N)c(Nc3cccc(Cl)c3)c2cc1NC(=O)CCCN(C)C [Example 137, N-(4-(3-chlorophenylamino)-3-cyano-7-ethoxyquinolin-6-yl)-4-(dimethylamino)butanamide]",1000 to 10000,
CCOc1cc2ncc(C#N)c(Nc3ccc(OC)c(Cl)c3)c2cc1NC(=O)CCCN(C)C [Example 138],1000 to 10000,
"CCOc1cc2ncnc(Nc3ccc(OCc4ncccc4C)cc3Cl)c2cc1NC(=O)CCCN(C)C [Example 146, N-(4-(2-chloro-4-((3-methylpyridin-2-yl)methoxy)phenylamino)-7-ethoxyquinazolin-6-yl)-4-(dimethylamino)butanamide]",1000 to 10000,

# From patent US10774068B2, “Composition and methods for inhibiting mammalian sterile 20-like kinase 1” (The Scripps Research Institute, priority 2015, dated 2020)
